Test results taken from patent US12077503B2, “Substituted cyclic amides and their use as herbicides” (FMC CORPORATION, priority 2015, dated 2024).

Key:
Assay type in all cases: in vivo
[1] = system: barnyardgrass (Echinochloa crus-galli); assay: Test G Pre-Emergence Protocol; details: Echinochloa crus-galli, pre-emergence, 312 h, evaluated after 13 days; for pest or weed control at 15.625 g/ha: 15.625 g ai/ha, read-out: Barnyard grass damage rating (100=total damage to plant; 0=no damage to plant); for pest or weed control at 62.5 g/ha: 62.5 g ai/ha, 100=total damage to plant, 0=no damage to plant, read-out: plant damage rating, Barnyardgrass; for pest or weed control at 250 g/ha: 250 g ai/ha, read-out: Barnyardgrass damage rating (100=total damage to plant; 0=no damage to plant)
In short: (§1)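 Herbicidal effect was rated 13 days post-application on a scale where 100 equals total damage. Spraying took place the day after sowing, using 15.625, 62.5 or 250 g/ha of compound in a 50:50 acetone/water solution with 0.5% Tween 20.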

[2] = system: corn (Zea mays); assay: Test G Pre-Emergence Protocol; details: Zea mays, pre-emergence, 312 h, evaluated after 13 days; for plant injury at 15.625 g/ha: 15.625 g ai/ha; for plant injury at 15.625 g/ha / plant injury at 250 g/ha: read-out: Corn damage rating (100=total damage to plant; 0=no damage to plant); for plant injury at 62.5 g/ha: 62.5 g ai/ha, 100=total damage to plant, 0=no damage to plant, read-out: plant damage rating, Corn; for plant injury at 250 g/ha: 250 g ai/ha
In short: as §1

[3] = system: giant foxtail (Setaria faberi); assay: Test G Pre-Emergence Protocol; details: Setaria faberi, pre-emergence, 312 h, evaluated after 13 days; for pest or weed control at 15.625 g/ha: 15.625 g ai/ha; for pest or weed control at 15.625 g/ha / pest or weed control at 250 g/ha: read-out: Foxtail, Giant damage rating (100=total damage to plant; 0=no damage to plant); for pest or weed control at 62.5 g/ha: 62.5 g ai/ha, 100=total damage to plant, 0=no damage to plant, read-out: plant damage rating, Foxtail, Giant; for pest or weed control at 250 g/ha: 250 g ai/ha
In short: as §1

[4] = system: ivy-leaved morning glory (Ipomoea hederacea); assay: Test G Pre-Emergence Protocol; details: Ipomoea, pre-emergence, 312 h, evaluated after 13 days; for pest or weed control at 15.625 g/ha: 15.625 g ai/ha, read-out: Morning-glory, Ivy-leaved damage rating (100=total damage to plant; 0=no damage to plant); for pest or weed control at 62.5 g/ha: 62.5 g ai/ha, 100=total damage to plant, 0=no damage to plant, read-out: plant damage rating, Morningglory, Ivy-leaved; for pest or weed control at 250 g/ha: 250 g ai/ha, read-out: Morningglory, Ivy-leaved damage rating (100=total damage to plant; 0=no damage to plant)
In short: as §1

[5] = system: redroot pigweed (Amaranthus retroflexus); assay: Test G Pre-Emergence Protocol; details: Amaranthus retroflexus, pre-emergence, 312 h, evaluated after 13 days; for pest or weed control at 15.625 g/ha: 15.625 g ai/ha; for pest or weed control at 15.625 g/ha / pest or weed control at 250 g/ha: read-out: Pigweed, Redroot damage rating (100=total damage to plant; 0=no damage to plant); for pest or weed control at 62.5 g/ha: 62.5 g ai/ha, 100=total damage to plant, 0=no damage to plant, read-out: plant damage rating, Pigweed, Redroot; for pest or weed control at 250 g/ha: 250 g ai/ha
In short: as §1

[6] = system: velvetleaf (Abutilon theophrasti); assay: Test G Pre-Emergence Protocol; details: Abutilon theophrasti, pre-emergence, 312 h, evaluated after 13 days; for pest or weed control at 15.625 g/ha: 15.625 g ai/ha; for pest or weed control at 15.625 g/ha / pest or weed control at 250 g/ha: read-out: Velvetleaf damage rating (100=total damage to plant; 0=no damage to plant); for pest or weed control at 62.5 g/ha: 62.5 g ai/ha, 100=total damage to plant, 0=no damage to plant, read-out: plant damage rating, Velvetleaf; for pest or weed control at 250 g/ha: 250 g ai/ha
In short: as §1

[7] = system: barnyardgrass (Echinochloa crus-galli); assay: Test G Post-Emergence Protocol; details: Echinochloa crus-galli, post-emergence, 312 h; for pest or weed control at 15.625 g/ha: 15.625 g ai/ha, evaluated after 13 days (100=total damage to plant; 0=no damage to plant), read-out: Barnyardgrass damage rating; for pest or weed control at 62.5 g/ha: 62.5 g ai/ha, read-out: Barnyardgrass damage rating (100=total damage to plant; 0=no damage to plant); for pest or weed control at 62.5 g/ha / pest or weed control at 250 g/ha: evaluated after 13 days; for pest or weed control at 250 g/ha: 250 g ai/ha, read-out: damage to plant, Barnyardgrass (100=total damage to plant; 0=no damage to plant)
In short: (§2)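 Foliar application was made 8 days after sowing, using an aqueous spray of the active in acetone/water (50:50) with 0.5% Tween 20, at doses of 15.625, 62.5 or 250 g/ha. Injury was assessed 13 days later, where 100 meant the plant was fully damaged.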

[8] = system: corn (Zea mays); assay: Test G Post-Emergence Protocol; details: Zea mays, post-emergence, 312 h; for plant injury at 15.625 g/ha: 15.625 g ai/ha, evaluated after 13 days (100=total damage to plant; 0=no damage to plant), read-out: Corn damage rating; for plant injury at 62.5 g/ha: 62.5 g ai/ha, read-out: Corn damage rating (100=total damage to plant; 0=no damage to plant); for plant injury at 62.5 g/ha / plant injury at 250 g/ha: evaluated after 13 days; for plant injury at 250 g/ha: 250 g ai/ha, read-out: damage to plant, Corn (100=total damage to plant; 0=no damage to plant)
In short: as §2

[9] = system: giant foxtail (Setaria faberi); assay: Test G Post-Emergence Protocol; details: Setaria faberi, post-emergence, 312 h; for pest or weed control at 15.625 g/ha: 15.625 g ai/ha, evaluated after 13 days (100=total damage to plant; 0=no damage to plant), read-out: Foxtail, Giant damage rating; for pest or weed control at 62.5 g/ha: 62.5 g ai/ha, read-out: Foxtail, Giant damage rating (100=total damage to plant; 0=no damage to plant); for pest or weed control at 62.5 g/ha / pest or weed control at 250 g/ha: evaluated after 13 days; for pest or weed control at 250 g/ha: 250 g ai/ha, read-out: damage to plant, Foxtail, Giant (100=total damage to plant; 0=no damage to plant)
In short: as §2

[10] = system: ivy-leaved morning glory (Ipomoea hederacea); assay: Test G Post-Emergence Protocol; details: Ipomoea, post-emergence, 312 h; for pest or weed control at 15.625 g/ha: 15.625 g ai/ha, evaluated after 13 days (100=total damage to plant; 0=no damage to plant), read-out: Morningglory, Ivy-leaved damage rating; for pest or weed control at 62.5 g/ha: 62.5 g ai/ha, read-out: Morningglory, Ivy-leaved damage rating (100=total damage to plant; 0=no damage to plant); for pest or weed control at 62.5 g/ha / pest or weed control at 250 g/ha: evaluated after 13 days; for pest or weed control at 250 g/ha: 250 g ai/ha, read-out: damage to plant, Morningglory, Ivy-leaved (100=total damage to plant; 0=no damage to plant)
In short: as §2

[11] = system: redroot pigweed (Amaranthus retroflexus); assay: Test G Post-Emergence Protocol; details: Amaranthus retroflexus, post-emergence, 312 h; for pest or weed control at 15.625 g/ha: 15.625 g ai/ha, evaluated after 13 days (100=total damage to plant; 0=no damage to plant), read-out: Pigweed, Redroot damage rating; for pest or weed control at 62.5 g/ha: 62.5 g ai/ha, read-out: Pigweed, Redroot damage rating (100=total damage to plant; 0=no damage to plant); for pest or weed control at 62.5 g/ha / pest or weed control at 250 g/ha: evaluated after 13 days; for pest or weed control at 250 g/ha: 250 g ai/ha, read-out: damage to plant, Pigweed, Redroot (100=total damage to plant; 0=no damage to plant)
In short: as §2

[12] = system: velvetleaf (Abutilon theophrasti); assay: Test G Post-Emergence Protocol; details: Abutilon theophrasti, post-emergence, 312 h; for pest or weed control at 15.625 g/ha: 15.625 g ai/ha, evaluated after 13 days (100=total damage to plant; 0=no damage to plant), read-out: Velvetleaf damage rating; for pest or weed control at 62.5 g/ha: 62.5 g ai/ha, read-out: Velvetleaf damage rating (100=total damage to plant; 0=no damage to plant); for pest or weed control at 62.5 g/ha / pest or weed control at 250 g/ha: evaluated after 13 days; for pest or weed control at 250 g/ha: 250 g ai/ha, read-out: damage to plant, Velvetleaf (100=total damage to plant; 0=no damage to plant)
In short: as §2

Structure (SMILES) | pest or weed control at 15.625 g/ha [1] [%] | pest or weed control at 62.5 g/ha [1] [%] | pest or weed control at 250 g/ha [1] [%] | plant injury at 15.625 g/ha [2] [%] | plant injury at 62.5 g/ha [2] [%] | plant injury at 250 g/ha [2] [%] | pest or weed control at 15.625 g/ha [3] [%] | pest or weed control at 62.5 g/ha [3] [%] | pest or weed control at 250 g/ha [3] [%] | pest or weed control at 15.625 g/ha [4] [%] | pest or weed control at 62.5 g/ha [4] [%] | pest or weed control at 250 g/ha [4] [%] | pest or weed control at 15.625 g/ha [5] [%] | pest or weed control at 62.5 g/ha [5] [%] | pest or weed control at 250 g/ha [5] [%] | pest or weed control at 15.625 g/ha [6] [%] | pest or weed control at 62.5 g/ha [6] [%] | pest or weed control at 250 g/ha [6] [%] | pest or weed control at 15.625 g/ha [7] [%] | pest or weed control at 62.5 g/ha [7] [%] | other results
Cc1n[nH]cc1NC(=O)[C@@H]1C(=O)N(C)C[C@H]1c1ccc(C(F)(F)F)cc1 (racemic) [Compound 1634] | 0 | 0 | 0 | 0 | 0 | 0 | 0 | 0 | 0 | 0 | 0 | 0 | 0 | 0 | 0 | 0 | 0 | 0 | 0 | 0 | pest or weed control at 250 g/ha [7]: 0%; plant injury at 15.625 g/ha [8]: 0%; plant injury at 62.5 g/ha [8]: 0%; plant injury at 250 g/ha [8]: 0%; pest or weed control at 15.625 g/ha [9]: 0%; pest or weed control at 62.5 g/ha [9]: 0%; pest or weed control at 250 g/ha [9]: 20%; pest or weed control at 15.625 g/ha [10]: 0%; pest or weed control at 62.5 g/ha [10]: 0%; pest or weed control at 250 g/ha [10]: 0%; pest or weed control at 15.625 g/ha [11]: 0%; pest or weed control at 62.5 g/ha [11]: 0%; pest or weed control at 250 g/ha [11]: 0%; pest or weed control at 15.625 g/ha [12]: 0%; pest or weed control at 62.5 g/ha [12]: 0%; pest or weed control at 250 g/ha [12]: 0%
C=CCc1ccc(Cl)cc1NC(=O)[C@H]1C(=O)N(C)C[C@@H]1c1ccc(C(F)(F)F)cc1 (racemic) [Compound 1441] | 0 | 0 | 0 | 0 | 0 | 0 | 0 | 0 | 0 | 0 | 0 | 0 | 0 | 0 | 0 | 0 | 0 | 0 | 0 | 0 | pest or weed control at 250 g/ha [7]: 0%; plant injury at 15.625 g/ha [8]: 0%; plant injury at 62.5 g/ha [8]: 0%; plant injury at 250 g/ha [8]: 20%; pest or weed control at 15.625 g/ha [9]: 0%; pest or weed control at 62.5 g/ha [9]: 0%; pest or weed control at 250 g/ha [9]: 20%; pest or weed control at 15.625 g/ha [10]: 0%; pest or weed control at 62.5 g/ha [10]: 0%; pest or weed control at 250 g/ha [10]: 0%; pest or weed control at 15.625 g/ha [11]: 0%; pest or weed control at 62.5 g/ha [11]: 0%; pest or weed control at 250 g/ha [11]: 0%; pest or weed control at 15.625 g/ha [12]: 0%; pest or weed control at 62.5 g/ha [12]: 0%; pest or weed control at 250 g/ha [12]: 0%
CSc1nnc(NC(=O)[C@@H]2C(=O)N(C)C[C@H]2c2ccc(C(F)(F)F)cc2)[nH]1 (racemic) [Compound 1603] | 0 | 0 | 0 | 0 | 0 | 0 | 0 | 0 | 0 | 0 | 0 | 0 | 0 | 0 | 0 | 0 | 0 | 0 | 0 | 0 | pest or weed control at 250 g/ha [7]: 0%; plant injury at 15.625 g/ha [8]: 0%; plant injury at 62.5 g/ha [8]: 0%; plant injury at 250 g/ha [8]: 0%; pest or weed control at 15.625 g/ha [9]: 0%; pest or weed control at 62.5 g/ha [9]: 0%; pest or weed control at 250 g/ha [9]: 0%; pest or weed control at 15.625 g/ha [10]: 0%; pest or weed control at 62.5 g/ha [10]: 0%; pest or weed control at 250 g/ha [10]: 0%; pest or weed control at 15.625 g/ha [11]: 0%; pest or weed control at 62.5 g/ha [11]: 0%; pest or weed control at 250 g/ha [11]: 0%; pest or weed control at 15.625 g/ha [12]: 0%; pest or weed control at 62.5 g/ha [12]: 0%; pest or weed control at 250 g/ha [12]: 0%
